According to patent publication US8002883B2, “Amidoalkylamine-comprising azole compositions for protecting industrial materials” (LANXESS Deutschland GmbH, priority 2009, dated 2011):

Tests used:
[1] = test system: Poria placenta; assay: Agar hyphae growth test, minimum inhibitory concentration (MIC) and Kull synergism; assay type: cell-based; conditions: malt extract/peptone nutrient agar, 26° C., radial hyphae growth suppressed completely; read-out: MIC against Poria placenta
Description: (§1) The synergism was determined by the method described by Kull et al. (F. C. Kull, P. C. Eismann, H. D. Sylvestrowicz, R. L. Mayer, Applied Microbiology 1961, 9, 538-541). Here, the following relations apply:
(§2) [formula] X=1 means additivity X>1 means antagonism X<1 means synergism Qa=concentration of substance A which is the MIC Qb=concentration of substance B which is the MIC QA=concentration of substance A in the concentration of A/B which suppresses the microbial growth QB=concentration of substance B in the concentration of A/B which suppresses the microbial growth Results:
(§3) Mycelium pieces were punched out of a colony of the wood-destroying fungus Poria placenta and incubated at 26° C. on a malt extract/peptone-containing nutrient agar. The hyphae growth with and without added active compound and/or additive was compared. The minimum inhibitory concentration (MIC) stated is the concentration at which the radial hyphae growth is suppressed completely.

[2] = test system: Gloeophyllum trabeum; assay: as above; assay type: cell-based; conditions: 168 h, malt extract/peptone nutrient agar, 26° C., radial hyphae growth suppressed completely, about 1 week, read-out: MIC against Gloeophyllum trabeum
Description: as §3, with “Gloeophyllum trabeum” for “Poria placenta”, “amidoalkylamine” for “additive”, “completely (incubation time: about 1 week depending on the fungal growth of the comparative sample without active compound).” for “completely.”
as §1
as §2, with “Results: […]” for “Results:”

Row | SMILES | MIC [1] [µg/mL] | MIC [2] [µg/mL]
1 | CC(C)(C)C(=O)C(Oc1ccc(Cl)cc1)n1cncn1 (stereo not drawn) [triadimefon] | 3 | –
2 | CCCC1COC(Cn2cncn2)(c2ccc(Cl)cc2Cl)O1 (stereo not drawn) [propiconazole] | 0.5 | –
3 | CC(C)(C)C(O)(CCc1ccc(Cl)cc1)Cn1cncn1 (stereo not drawn) [tebuconazole] | – | 0.5
